# Non-standard residues stand in square brackets, D forms with d. Residues, ends and D or L forms follow the SMILES beside them. ξ: configuration not given here. Ile(3ξ) = CCC(C)[C@H](N)C(=O)O
# Molecular target: T1, Pituitary adenylate cyclase-activating polypeptide (Homo sapiens, UniProt P18509)
# T1 sequence (P18509 whole entry): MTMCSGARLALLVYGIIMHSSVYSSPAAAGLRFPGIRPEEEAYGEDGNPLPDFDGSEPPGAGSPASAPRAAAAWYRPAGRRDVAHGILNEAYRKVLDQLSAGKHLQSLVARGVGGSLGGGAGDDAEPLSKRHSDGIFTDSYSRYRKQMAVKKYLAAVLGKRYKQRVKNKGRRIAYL
row,Ki,Compound
1,0.3 µM,CCC(C)[C@H](NC(=O)CNC(=O)[C@H](CC(=O)O)NC(=O)[C@@H](Cc1ccccc1)NC(=O)[C@@H](N)Cc1cnc[nH]1)C(=O)N[C@@H](Cc1ccccc1)C(=O)N[C@H](C(=O)N[C@@H](CC(=O)O)C(=O)N[C@@H](CO)C(=O)N[C@@H](Cc1ccc(O)cc1)C(=O)N[C@@H](CO)C(=O)N[C@@H](CCCN=C(N)N)C(=O)N[C@@H](Cc1ccc(O)cc1)C(=O)N[C@@H](CCCN=C(N)N)C(=O)N[C@@H](CCCCN)C(=O)N[C@@H](CCC(N)=O)C(=O)N[C@@H](CCSC)C(=O)N[C@@H](C)C(=O)N[C@H](C(=O)N[C@@H](CCCCN)C(=O)N[C@@H](CCCCN)C(=O)N[C@@H](Cc1ccc(O)cc1)C(=O)N[C@@H](CC(C)C)C(=O)N[C@@H](C)C(=O)N[C@@H](C)C(=O)N[C@H](C(=O)N[C@@H](CC(C)C)C(N)=O)C(C)C)C(C)C)[C@@H](C)O (stereo partly drawn) [[D-Phe2]PACAP-27]
2,0.2 µM,CCC(C)[C@H](NC(=O)CNC(=O)[C@H](CC(=O)O)NC(=O)[C@H](Cc1ccccc1)NC(=O)[C@@H](N)Cc1cnc[nH]1)C(=O)N[C@@H](Cc1ccccc1)C(=O)N[C@H](C(=O)N[C@@H](CC(=O)O)C(=O)N[C@@H](CO)C(=O)N[C@@H](Cc1ccc(O)cc1)C(=O)N[C@@H](CO)C(=O)N[C@@H](CCCN=C(N)N)C(=O)N[C@@H](Cc1ccc(O)cc1)C(=O)N[C@@H](CCCN=C(N)N)C(=O)N[C@@H](CCCCN)C(=O)N[C@@H](CCC(N)=O)C(=O)N[C@@H](CCSC)C(=O)N[C@@H](C)C(=O)N[C@H](C(=O)N[C@@H](CCCCN)C(=O)N[C@@H](CCCCN)C(=O)N[C@@H](Cc1ccc(O)cc1)C(=O)N[C@@H](CC(C)C)C(=O)N[C@@H](C)C(=O)N[C@@H](C)C(=O)N[C@H](C(=O)N[C@@H](CC(C)C)C(N)=O)C(C)C)C(C)C)[C@@H](C)O (stereo partly specified) [[Phe2]PACAP(1-27)]
3,0.01 µM,CCC(C)[C@H](NC(=O)CNC(=O)[C@H](CC(=O)O)NC(=O)[C@@H](Cc1ccccc1)NC(=O)[C@@H](N)Cc1cnc[nH]1)C(=O)N[C@@H](Cc1ccccc1)C(=O)N[C@H](C(=O)N[C@@H](CC(=O)O)C(=O)N[C@@H](CO)C(=O)N[C@@H](Cc1ccc(O)cc1)C(=O)N[C@@H](CO)C(=O)N[C@@H](CCCN=C(N)N)C(=O)N[C@@H](Cc1ccc(O)cc1)C(=O)N[C@@H](CCCN=C(N)N)C(=O)N[C@@H](CCCCN)C(=O)N[C@@H](CCC(N)=O)C(=O)N[C@@H](CCSC)C(=O)N[C@@H](C)C(=O)N[C@H](C(=O)N[C@@H](CCCCN)C(=O)N[C@@H](CCCCN)C(=O)N[C@@H](Cc1ccc(O)cc1)C(=O)N[C@@H](CC(C)C)C(=O)N[C@@H](C)C(=O)N[C@@H](C)C(=O)N[C@H](C(=O)N[C@@H](CC(C)C)C(=O)NCC(=O)N[C@@H](CCCCN)C(=O)N[C@@H](CCCN=C(N)N)C(=O)N[C@@H](Cc1ccc(O)cc1)C(=O)N[C@@H](CCCCN)C(=O)N[C@@H](CCC(N)=O)C(=O)N[C@@H](CCCN=C(N)N)C(=O)N[C@H](C(=O)N[C@@H](CCCCN)C(=O)N[C@@H](CC(N)=O)C(=O)N[C@@H](CCCCN)C(N)=O)C(C)C)C(C)C)C(C)C)[C@@H](C)O (stereo partly drawn) [[D-Phe2]PACAP-38] (H-H[dF]DG[Ile(3ξ)]FTDSYSRYRKQMAVKKYLAAVLGKRYKQRVKNK-NH2)

# Continued, compound first:
row,Compound,Ki
1,CCC(C)[C@H](N)C(=O)N[C@@H](Cc1ccccc1)C(=O)N[C@H](C(=O)N[C@@H](CC(=O)O)C(=O)N[C@@H](CO)C(=O)N[C@@H](Cc1ccc(O)cc1)C(=O)N[C@@H](CO)C(=O)N[C@@H](CCCN=C(N)N)C(=O)N[C@@H](Cc1ccc(O)cc1)C(=O)N[C@@H](CCCN=C(N)N)C(=O)N[C@@H](CCCCN)C(=O)N[C@@H](CCC(N)=O)C(=O)N[C@@H](CCSC)C(=O)N[C@@H](C)C(=O)N[C@H](C(=O)N[C@@H](CCCCN)C(=O)N[C@@H](CCCCN)C(=O)N[C@@H](Cc1ccc(O)cc1)C(=O)N[C@@H](CC(C)C)C(=O)N[C@@H](C)C(=O)N[C@@H](C)C(=O)N[C@H](C(=O)N[C@@H](CC(C)C)C(=O)NCC(=O)N[C@@H](CCCCN)C(=O)N[C@@H](CCCN=C(N)N)C(=O)N[C@@H](Cc1ccc(O)cc1)C(=O)N[C@@H](CCCCN)C(=O)N[C@@H](CCC(N)=O)C(=O)N[C@@H](CCCN=C(N)N)C(=O)N[C@H](C(=O)N[C@@H](CCCCN)C(=O)N[C@@H](CC(N)=O)C(=O)N[C@@H](CCCCN)C(N)=O)C(C)C)C(C)C)C(C)C)[C@@H](C)O (stereo partly specified) [PACAP(5-38)] (H-[Ile(3ξ)]FTDSYSRYRKQMAVKKYLAAVLGKRYKQRVKNK-NH2),0.005 µM
2,H-TDSYSRYRKQMAVKKYLAAVLGKRYKQRVKNK-NH2 [PACAP(7-38)],0.008 µM
3,CC[C@H](C)[C@H](NC(=O)CNC(=O)[C@H](CC(N)=O)NC(=O)[C@H](CO)NC(=O)[C@@H](N)Cc1cnc[nH]1)C(=O)N[C@@H](Cc1ccccc1)C(=O)N[C@H](C(=O)N[C@@H](CC(=O)O)C(=O)N[C@@H](CO)C(=O)N[C@@H](Cc1ccc(O)cc1)C(=O)N[C@@H](CO)C(=O)N[C@@H](CCCNC(=N)N)C(=O)N[C@@H](Cc1ccc(O)cc1)C(=O)N[C@@H](CCCNC(=N)N)C(=O)N[C@@H](CCCCN)C(=O)N[C@@H](CCC(N)=O)C(=O)N[C@@H](CCSC)C(=O)N[C@@H](C)C(=O)N[C@H](C(=O)N[C@@H](CCCCN)C(=O)N[C@@H](CCCCN)C(=O)N[C@@H](Cc1ccc(O)cc1)C(=O)N[C@@H](CC(C)C)C(=O)N[C@@H](C)C(=O)N[C@@H](C)C(=O)N[C@H](C(=O)N[C@@H](CC(C)C)C(N)=O)C(C)C)C(C)C)[C@@H](C)O [[Asn3]PACAP(1-27)],0.2 µM
